Measurements: US4921850A, “3-propenylcephem derivative” (Eisai Co., Ltd., priority 1986, dated 1990)
≈ marks a conversion by molar mass, not a printed value. Read-outs that look alike come from different tables or passages of the source.

Key:
Assay in all cases: Anti-bacterial activity (MIC), agar dilution
Assay type in all cases: cell-based
[1] = system: Morganella morganii EP-14; conditions: about 10^6 CFU/ml, 37° C.
Method in brief: (§1)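 Read-out is MIC (μg/ml) after 18 hours at 37° C on Mueller-Hinton agar with twofold antibiotic series. Inoculum: overnight broth cultures diluted to ~10^6 CFU/ml, spotted.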

Ser. marcescens ES-75 = conditions: Ser. marcescens ES-75, agar dilution, about 10^6 CFU/ml, 18 hours, 37° C.
Method in brief: as §1

Kleb. pneumoniae EK-6 = conditions: Kleb. pneumoniae EK-6, agar dilution, about 10^6 CFU/ml, 18 hours, 37° C.
Method in brief: as §1

Escher. coli NIHJ = conditions: Escher. coli NIHJ, agar dilution, about 10^6 CFU/ml, 18 hours, 37° C.
Method in brief: as §1

Pseud. aeruginosa EP-01 = conditions: Pseud. aeruginosa EP-01, agar dilution, about 10^6 CFU/ml, 18 hours, 37° C.
Method in brief: as §1

Staph. aureus 209-P = conditions: Staph. aureus 209-P, agar dilution, about 10^6 CFU/ml, 18 hours, 37° C.
Method in brief: as §1

[2] = Morganella morganii, EP14, 18 h, read-out: MIC
[3] = Serratia marcescens, ES75, 18 h, read-out: MIC
[4] = Klebsiella pneumoniae, EK6, 18 h, read-out: MIC
[5] = Escherichia coli, 18 h, read-out: MIC
[6] = Pseudomonas aeruginosa, EP01, 18 h, read-out: MIC
[7] = Staphylococcus aureus, 209P, 18 h, read-out: MIC

Row | SMILES | MIC [1, 2] | MIC (Ser. marcescens ES-75; [3]) | MIC (Kleb. pneumoniae EK-6; [4]) | MIC (Escher. coli NIHJ; [5]) | MIC (Pseud. aeruginosa EP-01; [6]) | MIC (Staph. aureus 209-P; [7]) | MIC ([1]; 18 hours) | MIC (Ser. marcescens ES-75) | MIC (Kleb. pneumoniae EK-6) | MIC (Escher. coli NIHJ) | MIC (Pseud. aeruginosa EP-01) | MIC (Staph. aureus 209-P)
1 | CN(C)CCC[N+](C)(C)C/C=C/C1=C(C(=O)[O-])N2C(=O)[C@@H](NC(=O)/C(=N\OCF)c3nsc(N)n3)[C@H]2SC1 [Example 77] | 0.4 µg/mL (≈ 0.701 µM) | 0.2 µg/mL (≈ 0.35 µM) | 0.2 µg/mL (≈ 0.35 µM) | 0.2 µg/mL (≈ 0.35 µM) | 3.13 µg/mL (≈ 5.48 µM) | 0.4 µg/mL (≈ 0.701 µM) | – | – | – | – | – | –
2 | CN(C)CC(O)C[N+](C)(C)C/C=C/C1=C(C(=O)[O-])N2C(=O)[C@@H](NC(=O)/C(=N\OCF)c3nsc(N)n3)[C@H]2SC1 (stereo partly drawn) [Example 78] | 0.2 µg/mL (≈ 0.341 µM) | 0.2 µg/mL (≈ 0.341 µM) | 0.2 µg/mL (≈ 0.341 µM) | 0.2 µg/mL (≈ 0.341 µM) | 3.13 µg/mL (≈ 5.34 µM) | 0.4 µg/mL (≈ 0.682 µM) | – | – | – | – | – | –
3 | Cc1c(CCO)sc[n+]1C/C=C/C1=C(C(=O)[O-])N2C(=O)[C@@H](NC(=O)/C(=N\OCF)c3nsc(N)n3)[C@H]2SC1 [Example 81] | ≤ 0.025 µg/mL | ≤ 0.025 µg/mL | ≤ 0.025 µg/mL | ≤ 0.025 µg/mL | 1.56 µg/mL (≈ 2.67 µM) | 0.2 µg/mL (≈ 0.343 µM) | – | – | – | – | – | –
4 | NC(=O)Cc1cccc[n+]1C/C=C/C1=C(C(=O)[O-])N2C(=O)[C@@H](NC(=O)/C(=N\OCF)c3nsc(N)n3)[C@H]2SC1 [Example 82] | ≤ 0.025 µg/mL | 0.05 µg/mL (≈ 0.0867 µM) | ≤ 0.025 µg/mL | ≤ 0.025 µg/mL | 1.56 µg/mL (≈ 2.71 µM) | 0.4 µg/mL (≈ 0.694 µM) | – | – | – | – | – | –
5 | Nc1nc(/C(=N/OCF)C(=O)N[C@@H]2C(=O)N3C(C(=O)[O-])=C(/C=C/C[n+]4ccc(C(=O)N(CCO)CCO)cc4)CS[C@H]23)ns1 [Example 83] | ≤ 0.025 µg/mL | 0.1 µg/mL (≈ 0.154 µM) | ≤ 0.025 µg/mL | 0.05 µg/mL (≈ 0.0768 µM) | 3.13 µg/mL (≈ 4.81 µM) | 0.8 µg/mL (≈ 1.23 µM) | – | – | – | – | – | –
6 | Nc1nc(/C(=N/OCF)C(=O)N[C@@H]2C(=O)N3C(C(=O)[O-])=C(/C=C/C[n+]4ccc(C(=O)NCCO)cc4)CS[C@H]23)ns1 [Example 84] | 0.05 µg/mL (≈ 0.0824 µM) | 0.1 µg/mL (≈ 0.165 µM) | ≤ 0.025 µg/mL | 0.05 µg/mL (≈ 0.0824 µM) | 1.56 µg/mL (≈ 2.57 µM) | 0.4 µg/mL (≈ 0.659 µM) | – | – | – | – | – | –
7 | NC(=O)Cc1ccc[n+](C/C=C/C2=C(C(=O)[O-])N3C(=O)[C@@H](NC(=O)/C(=N\OCF)c4nsc(N)n4)[C@H]3SC2)c1 [Example 85] | ≤ 0.025 µg/mL | ≤ 0.025 µg/mL | ≤ 0.025 µg/mL | ≤ 0.025 µg/mL | 1.56 µg/mL (≈ 2.71 µM) | 0.2 µg/mL (≈ 0.347 µM) | – | – | – | – | – | –
8 | C[N+](C)(C/C=C/C1=C(C(=O)[O-])N2C(=O)[C@@H](NC(=O)/C(=N\OCF)c3nsc(N)n3)[C@H]2SC1)CC(O)CO (stereo partly drawn) [Example 88] | ≤ 0.025 µg/mL | ≤ 0.025 µg/mL | ≤ 0.025 µg/mL | ≤ 0.025 µg/mL | 0.8 µg/mL (≈ 1.43 µM) | 0.2 µg/mL (≈ 0.357 µM) | – | – | – | – | – | –
9 | C[N+]1(CC=CC2=C(C(=O)[O-])N3C(=O)C(NC(=O)C(=NOCF)c4nsc(N)n4)C3SC2)CC(O)CC1CO (stereo not drawn) [Example 89-1] | ≤ 0.025 µg/mL | ≤ 0.025 µg/mL | ≤ 0.025 µg/mL | ≤ 0.025 µg/mL | 0.8 µg/mL (≈ 1.4 µM) | 0.2 µg/mL (≈ 0.35 µM) | – | – | – | – | – | –
10 | C[N+]1(CC=CC2=C(C(=O)[O-])N3C(=O)C(NC(=O)C(=NOCF)c4nsc(N)n4)C3SC2)CC(O)CC1CO (stereo not drawn) [Example 89-2] | – | – | – | – | – | – | ≤ 0.025 µg/mL | ≤ 0.025 µg/mL | ≤ 0.025 µg/mL | ≤ 0.025 µg/mL | 0.8 µg/mL (≈ 1.4 µM) | 0.2 µg/mL (≈ 0.35 µM)
11 | C[N+]1(C/C=C/C2=C(C(=O)[O-])N3C(=O)[C@@H](NC(=O)/C(=N\OCF)c4nsc(N)n4)[C@H]3SC2)CCC(O)CC1 (stereo partly drawn) [Example 90] | 0.05 µg/mL (≈ 0.09 µM) | ≤ 0.025 µg/mL | ≤ 0.025 µg/mL | 0.05 µg/mL (≈ 0.09 µM) | 0.8 µg/mL (≈ 1.44 µM) | 0.2 µg/mL (≈ 0.36 µM) | – | – | – | – | – | –
12 | Nc1nc(/C(=N/OCF)C(=O)N[C@@H]2C(=O)N3C(C(=O)[O-])=C(/C=C/C[N+]4(CCO)CCC(O)CC4)CS[C@H]23)ns1 (stereo partly drawn) [Example 91] | ≤ 0.025 µg/mL | ≤ 0.025 µg/mL | ≤ 0.025 µg/mL | 0.05 µg/mL (≈ 0.0854 µM) | 1.56 µg/mL (≈ 2.66 µM) | 0.2 µg/mL (≈ 0.342 µM) | – | – | – | – | – | –
13 | C[N+](C)(C/C=C/C1=C(C(=O)[O-])N2C(=O)[C@@H](NC(=O)/C(=N\OCF)c3nsc(N)n3)[C@H]2SC1)CC(=O)NCO [Example 92] | ≤ 0.025 µg/mL | ≤ 0.025 µg/mL | ≤ 0.025 µg/mL | ≤ 0.025 µg/mL | 0.8 µg/mL (≈ 1.4 µM) | 0.2 µg/mL (≈ 0.349 µM) | – | – | – | – | – | –
14 | C[N+](C)(C/C=C/C1=C(C(=O)[O-])N2C(=O)[C@@H](NC(=O)/C(=N\OCF)c3nsc(N)n3)[C@H]2SC1)CCC(N)=O [Example 93] | ≤ 0.025 µg/mL | ≤ 0.025 µg/mL | ≤ 0.025 µg/mL | ≤ 0.025 µg/mL | 0.8 µg/mL (≈ 1.44 µM) | 0.2 µg/mL (≈ 0.359 µM) | – | – | – | – | – | –
